Earlier results, collected in patent US7029703B2, “Composition for promoting healthy bone structure” (Metagenics, Inc., priority 1999, dated 2006).

Experiments:
[1] = 600 mg ipriflavone/day along with 1 gram calcium
[2] = in animals and in humans
[3] = clinical trials; consumption data of up to 2 years
osteoblast-like cells = settings: in vitro
[4] = postmenopausal osteoporosis

SMILES | Urinary hydroxyproline/creatinine (HOP/Cr) [1] | serum osteocalcin (BGP) [1] | increase in BMD at the distal radius (DPA) ([1]; 28 osteoporotic elderly women, P<0.05) | Bone pain (during the 1200/600 mg sequence of ipriflavone) | Serum alkaline phosphatase (ALP) decrease (following the 1200/600 mg ipriflavone sequence, P<0.01) | hydroxy proline/creatinine (HOP/Cr) decrease (following the 1200/600 mg ipriflavone sequence, P<0.05) | estrogenic activity [2] | frequency of adverse reactions [3] | alkaline phosphatase activity (osteoblast-like cells) | collagen synthesis (osteoblast-like cells) | rate of bone loss [4]
CC(C)Oc1ccc2c(=O)c(-c3ccccc3)coc2c1 [ipriflavone, 7-isopropoxyisoflavone] | reduced | reduced | 6% | significantly decreased | 33% | 24.1% | devoid of any estrogenic activity | equal to that observed during administration of a placebo | increases | increases | 
O=C([O-])[O-].[Ca+2] [calcium carbonate] |  |  |  |  |  |  |  |  |  |  | reduced the rate of bone loss by about half
